The values below come from patent US20080286373A1, “Ziprasidone formulations” (priority 2007, published 2008).

The conditions of data set [1]: Within 45 minutes; pH 7.5, 900 ml aqueous monobasic sodium phosphate with 2w/v % Na dodecyl sulfate, USP 2 paddles 75 rpm; formulation of U.S. Pat. No. 6,150,366, mean particle size <85 microns; cited from earlier work.
Data set [2] can be described thus: Solubility of ziprasidone hydrochloride monohydrate in various solvents (Table 1). It is filed as physicochemical.
Data set [3] in a line: Solubility of ziprasidone hydrochloride monohydrate in excipients (Table 2). It is filed as physicochemical. The protocol:
Solubility in various excipients that are frequently used to improve solubility was also tested and the results thereof are in Table 2 below.

Counter-ions that a name gives are not always drawn.

Consider Ziprasidone, for which the ziprasidone dissolved in data set [1] is 70%.
With `O=C1Cc2cc(CCN3CCN(c4nsc5ccccc45)CC3)c(Cl)cc2N1` [Ziprasidone HCl monohydrate, ziprasidone hydrochloride monohydrate], the solubility is <1% in data set [2] (solvent ACN); <1% in data set [2] (solvent Acetone); <1% in data set [2] (solvent Acetone/water); <1% in data set [2] (solvent DCM); 1.5% in data set [2] (solvent DMF/DMA/DMSO); <1% in data set [2] (solvent DMF/water 80/20). The solubility in data set [2] (solvent Ethanol) is reported as <1%; in data set [2] (solvent Isopropanol) it was <1%; in data set [2] (solvent Methanol), 1.5%; in data set [2] (solvent Methanol/acetic acid 90/10), <1%; in data set [2] (solvent Methanol/water 60/40), <1%; in data set [2] (solvent Methanol/water 80/20) it was 1.5%. The solubility in data set [2] (solvent THF) is <1%; in data set [3] (0.1 N HCl solution, simulated gastric fluid), 500 µg/mL; in data set [3] (5% caprolactam in water, aqueous with cosolvent or surfactant or cyclodextrin, 5% caprolactam in solution in water) it was 300 µg/mL; in data set [3] (20% Lactic acid in PEG 400, organic solvent or mixture) it was 1300 µg/mL; in data set [3] (20% Lutrol in TPGS, organic solvent or mixture) it was 1000 µg/mL; in data set [3] (Benzyl alcohol, organic solvent or mixture) it was 2900 µg/mL. For the same compound, the solubility in data set [3] (Benzyl benzoate, organic solvent or mixture) was 300 µg/mL; in data set [3] (Ethanol, organic solvent or mixture), 400 µg/mL; in data set [3] (Gelucire 44/14, oil or lipid), 1000 µg/mL; in data set [3] (Gelucire 50/13, oil or lipid) it was 1000 µg/mL; in data set [3] (Glacial acetic acid, organic solvent or mixture), 2800 µg/mL; in data set [3] (Glycerol, organic solvent or mixture), 1250 µg/mL. Besides, the solubility in data set [3] (Labrofac (Capric triglyceride PEG-4 ester), oil or lipid) turned out to be 900 µg/mL; in data set [3] (Lactic acid (85% strength), organic solvent or mixture), 10000 µg/mL; in data set [3] (Maisine 35-1 (glycerol monolinoleate), oil or lipid), 1000 µg/mL; in data set [3] (N-methyl 2-pyrrolidone, organic solvent or mixture) it was 10000 µg/mL; in data set [3] (PEG 400, organic solvent or mixture), 2500 µg/mL; in data set [3] (PEG 6000, organic solvent or mixture), 2500 µg/mL. Moreover, the solubility in data set [3] (Peceol (glycerol monooleate 40), oil or lipid) worked out at 1000 µg/mL; in data set [3] (Propylene glycol, organic solvent or mixture), 2000 µg/mL; in data set [3] (Span 80, organic solvent or mixture) it was 500 µg/mL; in data set [3] (Tween 20, organic solvent or mixture), 3000 µg/mL; in data set [3] (Tween 80, organic solvent or mixture) it was 2100 µg/mL; in data set [3] (Water), 30 µg/mL. Further, the solubility in data set [3] (aqueous buffer, Phosphate buffer pH 6.8 (without SLS)) is < 10 µg/mL.
